Source: US7511145B2 (Genelabs Technologies, Inc., priority 2003, dated 2009)

Target: T1, HCV-NS5b (Hepatitis C virus genotype 1b, UniProt Q9WMX2)
T1 construct: (His)6 (C); made in house; host or cells: XL-1 cells (E. coli), IPTG-inducible plasmid, nickel-NTA purification
Assay: HCV-NS5b enzyme assay (incorporation of radiolabeled UTP)
Assay type: biochemical
Settings: for inhibition at 33 µM: enzyme inhibition at compound concentration of 33 uM; for inhibition at 100 µM: read-out: % inh@100, enzyme inhibition at compound concentration of 100 uM
Method in brief: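 Percent inhibition, background-corrected against uninhibited control, was measured at 100 and 33 uM compound. Incorporation of [3H]-UTP (10 μM each NTP) into biotinylated HCV-template RNA, 37° C for 2 h, pH 7.5, scintillation proximity. Enzyme: C-terminally truncated (21 aa), His6-tagged NS5b from XL-1.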

## O=C(O)c1ccc2c(c1)nc(-c1ccc3nc(-c4ccc(-c5ccccc5)cc4)ccc3c1)n2C1CCCCC1 [Compound 390, 2-(2-biphenyl-4-yl-quinolin-6-yl)-1-cyclohexyl-1H-benzoimidazole-5-carboxylic acid]
  inhibition at 33 µM: 79.9%
  inhibition at 100 µM: 92.5%

## O=C(O)COc1ccc(-c2ccc(Cl)cc2)c(-c2ccc3cc(-c4nc5cc(C(=O)O)ccc5n4C4CCCCC4)ccc3n2)c1 [Compound 393, 2-[2-(4-Carboxymethoxy-4′-chloro-biphen-2-yl)-quinolin-6-yl]-1-cyclohexyl-1H-benzoimidazole-5-carboxylic acid]
  inhibition at 33 µM: 97.6%
  inhibition at 100 µM: 96.9%

## Cn1c2ccc(Cl)cc2c2cc(-c3ccc4cc(-c5nc6cc(C(=O)O)ccc6n5C5CCCCC5)ccc4n3)ccc21 [Compound 463, 2-[2-(6-chloro-9-methyl-9H-carbazol-3-yl)-quinolin-6-yl]-1-cyclohexyl-1H-benzoimidazole-5-carboxylic acid]
  inhibition at 33 µM: 96%
  inhibition at 100 µM: 97.2%

## COc1cc(Br)c2oc(-c3ccc4cc(-c5nc6cc(C(=O)O)ccc6n5C5CCCCC5)ccc4n3)cc2c1 [Compound 394, 2-[2-(7-bromo-5-methoxy-benzofuran-2-yl)-quinolin-6-yl]-1-cyclohexyl-1H-benzoimidazole-5-carboxylic acid]
  inhibition at 33 µM: 98.9%
  inhibition at 100 µM: 100%

## O=C(O)c1ccc2c(c1)nc(-c1cc3ccc(-c4ccccc4-c4ccccc4)nc3cc1F)n2C1CCCCC1 [Compound 388, 2-(2-Biphen-2-yl-7-fluoro-quinolin-6-yl)-1-cyclohexyl-1H-benzoimidazole-5-carboxylic acid]
  inhibition at 33 µM: 98.7%
  inhibition at 100 µM: 98.6%

## O=C(O)c1ccc2c(c1)nc(-c1ccc3cc(-c4ccccc4)cnc3c1)n2C1CCCCC1 [Compound 351, 1-cyclohexyl-2-(3-phenyl-quinolin-7-yl)-1H-benzoimidazole-5-carboxylic acid]
  inhibition at 33 µM: 94.9%
  inhibition at 100 µM: 98.1%

## Cc1onc(-c2ccc(Cl)cc2)c1-c1ccc2cc(-c3nc4cc(C(=O)O)ccc4n3C3CCCCC3)ccc2n1 [Compound 396, 2-{2-[3-(4-chloro-phenyl)-5-methyl-isoxazol-4-yl]-quinolin-6-yl}-1-cyclohexyl-1H-benzoimidazole-5-carboxylic acid]
  inhibition at 33 µM: 100%
  inhibition at 100 µM: 100%

## Cc1cc(-c2nc3cc(C(=O)O)ccc3n2C2CCCCC2)cc2ccc(-c3ccccc3-c3ccc(Cl)cc3)nc12 [Compound 417, 2-[2-(4′-Chloro-biphen-2-yl)-8-methyl-quinolin-6-yl]-1-cyclohexyl-1H-benzoimidazole-5-carboxylic acid]
  inhibition at 33 µM: 97.8%
  inhibition at 100 µM: 98%

## O=C(O)c1ccc2c(c1)nc(-c1ccc3nc(-c4cccc(O)c4)ccc3c1)n2C1CCCCC1 [Compound 474, 1-Cyclohexyl-2-[2-(3-hydroxy-phenyl)-quinolin-6-yl]-1H-benzoimidazole-5-carboxylic acid]
  inhibition at 33 µM: 97%
  inhibition at 100 µM: 101%

## CNC(=O)c1ccc(-c2ccccc2)c(-c2ccc3cc(-c4nc5cc(C(=O)O)ccc5n4C4CCCCC4)ccc3n2)c1 [Compound 362, 1-cyclohexyl-2-[2-(4-methylcarbamoyl-biphen-2-yl)-quinolin-6-yl]-1H-benzoimidazole-5-carboxylic acid]
  inhibition at 33 µM: 101%
  inhibition at 100 µM: 98.4%

## COc1cccc(-c2nc3ccc(-c4nc5cc(C(=O)O)ccc5n4C4CCCCC4)cc3nc2-c2cccc(OC)c2)c1 [Compound 425, 2-[2,3-Bis-(3-methoxyphenyl)quinoxalin-6-yl]-1-cyclohexyl-1H-benzimidazole-5-carboxylic acid]
  inhibition at 33 µM: 96.2%
  inhibition at 100 µM: 98.2%

## O=C(O)c1ccc2c(c1)nc(-c1ccc3nc(C(=O)Nc4ccc(Cl)cc4)ccc3c1)n2C1CCCCC1 [Compound 510, 2-[2-(4-Chlorophenylcarbamoyl)quinolin-6-yl]-1-cyclohexyl-1H-benzimidazole-5-carboxylic acid]
  inhibition at 33 µM: 99.5%
  inhibition at 100 µM: 100%

## COc1ccc(-c2ccc(O)cc2)c(-c2ccc3cc(-c4nc5cc(C(=O)O)ccc5n4C4CCCCC4)ccc3n2)c1 [Compound 469, 1-cyclohexyl-2-[2-(4′-hydroxy-4-methoxy-biphen-2-yl)-quinolin-6-yl]-1H-benzoimidazole-5-carboxylic acid]
  inhibition at 33 µM: 94.2%
  inhibition at 100 µM: 98.2%

## O=C(O)c1ccc2c(c1)nc(-c1ccc3nc(-c4ccc[nH]4)ccc3c1)n2C1CCCCC1 [Compound 450, 1-Cyclohexyl-2-[2-(1H-pyrrol-2-yl)-quinolin-6-yl]-1H-benzoimidazole-5-carboxylic acid]
  inhibition at 33 µM: 96.5%
  inhibition at 100 µM: 99.7%

## O=C(N[C@@H](CO)C(=O)O)c1ccc2c(c1)nc(-c1ccc3nc(-c4ccccc4)ccc3c1)n2C1CCCCC1 [Compound 231, 2-{[1-Cyclohexyl-2-(2-phenyl-quinolin-6-yl)-1H-benzoimidazole-5-carbonyl]-amino}-3-hydroxy-propionic acid]
  inhibition at 33 µM: 67%
  inhibition at 100 µM: 97.5%

## Cc1ccc2cc(-c3nc4cc(C(=O)N[C@@H](Cc5c[nH]c6ccc(O)cc56)C(=O)O)ccc4n3C3CCCCC3)ccc2n1 [Compound 230, 2-{[1-Cyclohexyl-2-(2-methyl-quinolin-6-yl)-1H-benzoimidazole-5-carbonyl]-amino}-3-(5-hydroxy-1H-indol-3-yl)-propionic acid]
  inhibition at 33 µM: 92.7%
  inhibition at 100 µM: 98.2%

## COc1ccc(-c2ccc(Cl)cc2)c(-c2ccc3cc(-c4nc5cc(C(=O)O)ccc5n4C4CCCCC4C)ccc3n2)c1 (stereo not drawn) [Compound 556, 2-[2-(4′-Chloro-4-methoxy-biphen-2-yl)-quinolin-6-yl]-1-(2-methyl-cyclohexyl)-1H-benzoimidazole-5-carboxylic acid]
  inhibition at 33 µM: 103%
  inhibition at 100 µM: 102%

## COc1ccc(-c2cccs2)c(-c2ccc3cc(-c4nc5cc(C(=O)O)ccc5n4C4CCCCC4)ccc3n2)c1 [Compound 470, 1-cyclohexyl-2-[2-(5-methoxy-2-thiophen-2-yl-phenyl)-quinolin-6-yl]-1H-benzoimidazole-5-carboxylic acid]
  inhibition at 33 µM: 101%
  inhibition at 100 µM: 99.4%

## Cc1nc(C)c(-c2ccc3cc(-c4nc5cc(C(=O)O)ccc5n4C4CCCCC4)ccc3n2)s1 [Compound 426, 1-cyclohexyl-2-[2-(2,4-dimethyl-thiazol-5-yl)-quinolin-6-yl]-1H-benzoimidazole-5-carboxylic acid]
  inhibition at 33 µM: 96.6%
  inhibition at 100 µM: 102%

## O=C(O)c1ccc2c(c1)nc(-c1ccc3nc(-c4cccc(OCCCN5CCCC5)c4)ccc3c1)n2C1CCCCC1 [Compound 414, 1-Cyclohexyl-2-{2-[3-(3-pyrrolidin-1-yl-propoxy)-phenyl]-quinolin-6-yl}-1H-benzoimidazole-5-carboxylic acid]
  inhibition at 33 µM: 93.4%
  inhibition at 100 µM: 96.8%

## COc1ccc(-c2ccc(F)c(Cl)c2)c(-c2ccc3cc(-c4nc5cc(C(=O)O)ccc5n4C4CCCCC4)ccc3n2)c1 [Compound 366, 2-[2-(3′-chloro-4′-fluoro-4-methoxy-biphen-2-yl)-quinolin-6-yl]-1-cyclohexyl-1H-benzoimidazole-5-carboxylic acid]
  inhibition at 33 µM: 97.6%
  inhibition at 100 µM: 99.4%
